We go through 6 compounds from ChEMBL document CHEMBL1135545, “Conformational memories and the endocannabinoid binding site at the cannabinoid CB1 receptor” (J Med Chem, 2002).

The assay concerns the target Cannabinoid receptor 1 (Homo sapiens, UniProt P21554). Briefly: Compound was evaluated for its binding affinity towards Cannabinoid receptor 1 [Inactive form(R) of CB1 receptor].

Bounds are passed on as bounds.

Chain of Cannabinoid receptor 1 (P21554 whole entry): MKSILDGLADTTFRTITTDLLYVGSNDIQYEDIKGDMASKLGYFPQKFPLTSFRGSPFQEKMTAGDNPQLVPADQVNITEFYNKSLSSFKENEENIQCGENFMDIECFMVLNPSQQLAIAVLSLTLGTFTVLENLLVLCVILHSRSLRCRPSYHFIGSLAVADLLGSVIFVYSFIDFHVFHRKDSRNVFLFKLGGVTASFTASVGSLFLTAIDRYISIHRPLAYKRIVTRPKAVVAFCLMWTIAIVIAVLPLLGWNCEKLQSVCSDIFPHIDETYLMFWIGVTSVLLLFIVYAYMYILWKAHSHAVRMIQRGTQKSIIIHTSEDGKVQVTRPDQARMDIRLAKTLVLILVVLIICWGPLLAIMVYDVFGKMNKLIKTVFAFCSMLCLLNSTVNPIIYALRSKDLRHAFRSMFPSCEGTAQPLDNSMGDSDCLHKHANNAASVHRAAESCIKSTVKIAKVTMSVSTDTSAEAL

Usually Ki stands for the dissociation constant of the complex between target and ligand, obtained from inhibition or displacement. `CCCCC/C=C\C/C=C\C/C=C\C/C=C\CC[C@H](C)C(=O)N[C@@H](C)CO`: the Ki came out at 389 nM.
As to `CCCCC/C=C\C/C=C\C/C=C\C/C=C\CC[C@@H](C)C(=O)N[C@H](C)CO`, the Ki was 7.42 nM.
Take `CCCCC/C=C\C/C=C\CCCCCCCCCC(=O)NCCO`: the Ki was > 1500 nM.
Under `CCCCC/C=C\C/C=C\C/C=C\C/C=C\CC[C@@H](C)C(=O)N[C@@H](C)CO` stands 233 nM; under `CCCCC/C=C\C/C=C\C/C=C\C/C=C\CCCCCC(=O)NCCO`, 34.4 nM; under `CCCCC/C=C\C/C=C\C/C=C\C/C=C\CC[C@H](C)C(=O)N[C@H](C)CO`, 185 nM.
